{
  "source": "patent US6451976B1",
  "about": "“Bi-or multifunctional molecules based on a dendroaspin scaffold” (Trigen Limited, priority 1997, dated 2002)",
  "molecules": {"B1": {"name": "SEQ ID NO:43: modified dendroaspin with hirudin domain grafted into loops I and II (protein)", "chain": "RICFTPRGDMPGPYPGPCQEDSCYKNIWTFDNIIRRGCGCFTPRGDMPGPYFPRPQSHNDGDFEEIPEEYLQ"}},
  "key": {"platelets": {"system": "platelets", "test": "ADP-induced platelet aggregation (RGD function)", "format": "cell-based, human", "settings": "summary of FIG. 3D", "description": "(§1) Platelet aggregation: Platelet aggregation was measured by the increase in light transmission as described in Lu et al (1994) Biochem J 304: 929-936 and used to identify RGD function. Briefly, platelet rich plasma (PRP) was prepared from citrated human blood from healthy individuals by centrifugation at 200 g for 15 min. Platelets were prepared from PRP by centrifugation at 1200 g for 15 min. The pellets were washed and resuspended in adhesion/aggregation buffer (145 mM NaCl, 5 mM Kcl, 1 mM MgCl2, 2 mM CaCl2, 10 mM glucose, 3.5 mg/ml BSA and 10 mM HEPES, pH 7.35) and adjusted to a count of 3×10^8/ml. Platelet aggregation (320 μl incubations) was induced with 10 μM ADP in the presence of 1.67 mg/ml fibrinogen and measured using a Payton Dual-Aggregometer linked to a chart recorder."}, "washed platelets": {"system": "washed platelets", "test": "Thrombin-induced platelet aggregation", "format": "cell-based, human", "settings": "summary of FIG. 3D", "description": "as §1\nThrombin-induced platelet aggregation: Thrombin-induced platelet aggregation in washed platelets for both wild-type and mutant dendroaspins were determined as described in Example 3 above, except thrombin was used as an agonist."}, "thrombin": {"target": "thrombin (Homo sapiens, UniProt P00734)", "test": "Thrombin-induced fibrinogen clotting time", "format": "biochemical", "settings": "summary of FIG. 3D", "description": "Thrombin-induced fibrinogen clotting time: Thrombin-induced fibrinogen clotting time was determined using an Amelung KC-10 instrument as follows. 50 μl of thrombin (3.3 μg/ml) in 50 mM Tris-HCL, pH7.5, containing 150 mM NaCl and 5 mM CaCl2 was mixed with 10 μl of various concentrations of both modified (Den-TM) and wild type dendroaspin (as a control for comparison). After a 2 min incubation at 37° C., 100 μl of fibrinogen (160 μg/ml) in the same buffer was added to determine the clotting time.\nAmidolytic activity of thrombin and clotting of fibrinogen: The amidolytic activity of α-thrombin was performed using the chromogenic substrate S-2238 (Chromogenix) and α-thrombin at a final concentration of 0.06 unit/ml. Thrombin releases p-nitroaniline from the substrate and the rate of this reaction was monitored in microtiter plates at 405 nm using an automated spectrophotometer (Autoreader III, Ortho Diagnostic Systems). The inhibitory effect of Den-HR on thrombin cleavage of the chromogenic substrate was measured at final concentration between nM-mM. […] The time to observe the start of fibrinogen clotting (thrombin time) was measured using an automated coagulometer at 37° C. The effect of mutants on fibrinogen clotting by α-thrombin was determined by substituting the HEPES buffer in the first mixture with mutants at a range of concentrations."}, "[1]": {"system": "platelet adhesion to fibrinogen", "settings": "Lu X et al (1994); cited from earlier work"}, "[2]": {"system": "binding of platelets to immobilized fibronectin", "settings": "Lu X et al (1994); cited from earlier work"}},
  "data": [
    {"molecule": "SEQ ID NO:46: dendroaspin carrying the thrombomodulin-binding sequence of the B-chain of human thrombin; bifunctional molecule (RICFTPRGDMPGPYPGPCQEDSCYKNIWTFDNIIRRGPGPTWTANVGKGQPS)", "values": [
      {"measurement": "inhibition of ADP-induced platelet aggregation", "setting": "platelets", "result": "inhibits"},
      {"measurement": "inhibition of thrombin-induced platelet aggregation", "setting": "washed platelets", "result": "inhibits"},
      {"measurement": "thrombin clotting time", "setting": "thrombin", "result": "delay"}
    ]},
    {"molecule": "kistrin", "values": [
      {"measurement": "inhibition of platelet adhesion to fibrinogen", "setting": "[1]", "result": "potent inhibitors"},
      {"measurement": "inhibition of binding of platelets to immobilized fibronectin", "setting": "[2]", "result": "poor antagonists"}
    ]},
    {"molecule": "B1", "values": [
      {"measurement": "inhibition of ADP-induced platelet aggregation", "setting": "platelets", "result": "inhibits"},
      {"measurement": "inhibition of thrombin-induced platelet aggregation", "setting": "washed platelets", "result": "inhibits"},
      {"measurement": "thrombin clotting time", "setting": "thrombin", "result": "delays"}
    ]}
  ]
}
